# ± gives the standard deviation of the averaged measurements.
# Tests used:
# Danio rerio embryo [1] = test: EC20 Eye-jaw distance_Decrease; higher = less potent; settings: exposure time: 4 dpf
# Protocol: (§1)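 Zebrafish embryos (UFZ-OBI strain) were exposed from 2 hpf for 48 h (2 dpf) or 96 h (4 dpf) at 28 °C; spontaneous tail coiling was scored at 25 hpf. Morphological features from automated image analysis (FishInspector), heart rate and locomotor response were fitted with drc models. Quantal endpoints were dichotomised at 2.5 SD from controls and fitted with a log-logistic model; heart rate, pigmentation and STC were normalised to the replicate control mean. Betamethasone was tested as betamethasone dipropionate, diflorasone as diflorasone diacetate.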
# Danio rerio embryo [2] = test: EC50 Otolith-eye distance_Decrease; settings: exposure time: 4 dpf
# Protocol: as §1
# Danio rerio embryo [3] = test: EC20 Eye size_Decrease; higher = less potent
# Protocol: as §1
# Danio rerio embryo [4] = test: EC50 Curvature_Increase
# Protocol: as §1
# Danio rerio embryo [5] = tested on: Danio rerio embryo
# Protocol: as §1
# Danio rerio embryo [6] = test: EC50 Pericard size_Increase; settings: exposure time: 4 dpf
# Protocol: as §1
# Danio rerio embryo [7] = test: EC10 Lack of SB; higher = less potent; settings: exposure time: 4 dpf
# Protocol: as §1
# Danio rerio embryo [8] = test: EC10 Eye size_Decrease; higher = less potent
# Protocol: as §1
# Danio rerio embryo [9] = settings: exposure time: 4 dpf
# Protocol: as §1
# Danio rerio embryo [10] = tested on: Danio rerio embryo; remark: listed apart in the source
# Protocol: as §1
# Danio rerio embryo [11] = test: EC10 LMR dark; higher = less potent; settings: exposure time: 4 dpf
# Protocol: as §1
# Danio rerio embryo [12] = test: EC20 Any effect; higher = less potent
# Protocol: as §1
# Danio rerio embryo [13] = test: EC20 STC bell shape; higher = less potent; settings: exposure time: 25 h
# Protocol: as §1
# Danio rerio embryo [14] = test: EC50 Body length_Decrease
# Protocol: as §1
# Danio rerio embryo [15] = test: EC10 Pigmentation decrease; higher = less potent
# Protocol: as §1
# Danio rerio embryo [16] = test: EC10 Otolith-eye distance_Decrease; higher = less potent; settings: exposure time: 4 dpf
# Protocol: as §1
# Danio rerio embryo [17] = test: EC10 Body length_Decrease; higher = less potent
# Protocol: as §1
# Danio rerio embryo [18] = test: EC10 Pericard size_Increase; higher = less potent; settings: exposure time: 4 dpf
# Protocol: as §1
# Danio rerio embryo [19] = test: EC10 LMR ligth decrease; higher = less potent; settings: exposure time: 4 dpf
# Protocol: as §1
# Danio rerio embryo [20] = test: EC20 Pericard size_Increase; higher = less potent; settings: exposure time: 4 dpf
# Protocol: as §1
# Danio rerio embryo [21] = test: EC20 Bladder size_Decrease; higher = less potent; settings: exposure time: 4 dpf
# Protocol: as §1
# Danio rerio embryo [22] = test: EC10 Any effect; higher = less potent
# Protocol: as §1
# Danio rerio embryo [23] = test: EC20 Curvature_Increase; higher = less potent
# Protocol: as §1
# Danio rerio embryo [24] = test: EC20 Body length_Decrease; higher = less potent
# Protocol: as §1
# Danio rerio embryo [25] = test: EC20 Otolith-eye distance_Decrease; higher = less potent; settings: exposure time: 4 dpf
# Protocol: as §1
# Danio rerio embryo [26] = test: EC50 Eye size_Decrease
# Protocol: as §1
# Danio rerio embryo [27] = test: EC10 Eye-jaw distance_Decrease; higher = less potent; settings: exposure time: 4 dpf
# Protocol: as §1
# Danio rerio embryo [28] = test: EC50 Bladder size_Decrease; settings: exposure time: 4 dpf
# Protocol: as §1
# Danio rerio embryo [29] = test: EC50 Eye-jaw distance_Decrease; settings: exposure time: 4 dpf
# Protocol: as §1
# Danio rerio embryo [30] = test: EC20 LMR ligth decrease; higher = less potent; settings: exposure time: 4 dpf
# Protocol: as §1
# Danio rerio embryo [31] = test: EC10 Curvature_Increase; higher = less potent
# Protocol: as §1
# Danio rerio embryo [32] = test: EC20 LMR dark; higher = less potent; settings: exposure time: 4 dpf
# Protocol: as §1
# Danio rerio embryo [33] = test: EC10 Bladder size_Decrease; higher = less potent; settings: exposure time: 4 dpf
# Protocol: as §1
# Danio rerio embryo [34] = settings: exposure time: 4 dpf; remark: listed apart in the source
# Protocol: as §1
# Danio rerio embryo [35] = test: EC20 Lack of SB; higher = less potent; settings: exposure time: 4 dpf
# Protocol: as §1
# Danio rerio embryo [36] = test: EC20 Pigmentation decrease; higher = less potent
# Protocol: as §1
# Danio rerio embryo [37] = test: EC10 STC bell shape; higher = less potent; settings: exposure time: 25 h
# Protocol: as §1
# Danio rerio embryo [38] = test: EC50 Yolk sac size_Decrease; settings: exposure time: 4 dpf
# Protocol: as §1
# Danio rerio embryo [39] = test: spontaneous tail coiling frequency (coils/min/embryo); higher = more spontaneous movement; settings: 25 hpf
# Protocol: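 Spontaneous tail coilings of zebrafish embryos exposed from 2 hpf were recorded at 24-25 hpf in 1-min videos and detected by a KNIME workflow from grey-value variance. Betamethasone was tested as the dipropionate, diflorasone as the diacetate.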
# Danio rerio embryo [40] = test: EC10 Yolk sac size_Decrease; higher = less potent; settings: exposure time: 4 dpf
# Protocol: as §1
# Danio rerio embryo [41] = test: EC20 Yolk sac size_Decrease; higher = less potent; settings: exposure time: 4 dpf
# Protocol: as §1
smiles,measurement,setting,value
CC(=O)Nc1ccc(O)cc1 [Acetaminophen],EC20 Eye-jaw distance Decrease,Danio rerio embryo [1],2410 µM
same,EC50 Otolith-eye distance Decrease,Danio rerio embryo [2],2720 µM
same,EC20 Eye size Decrease,Danio rerio embryo [3]; exposure time: 2 dpf,2300 µM
same,EC20 Eye size Decrease,Danio rerio embryo [3]; exposure time: 4 dpf,1740 µM
same,EC50 Curvature Increase,Danio rerio embryo [4]; exposure time: 2 dpf,3760 µM
same,EC50 Curvature Increase,Danio rerio embryo [4]; exposure time: 4 dpf,3830 µM
same,EC50 Any effect,Danio rerio embryo [5]; exposure time: 2 dpf,2690 µM
same,EC50 Any effect,Danio rerio embryo [5]; exposure time: 4 dpf,1710 µM
same,EC50 LMR ligth decrease,Danio rerio embryo [5]; exposure time: 4 dpf,821 µM
same,EC50 STC bell shape,Danio rerio embryo [5]; exposure time: 25 h,8110 µM
same,EC50 Pericard size Increase,Danio rerio embryo [6],3010 µM
same,EC10 Lack of SB,Danio rerio embryo [7],1080 µM
same,EC10 Eye size Decrease,Danio rerio embryo [8]; exposure time: 2 dpf,1980 µM
same,EC10 Eye size Decrease,Danio rerio embryo [8]; exposure time: 4 dpf,1670 µM
same,EC50 LMR dark,Danio rerio embryo [9],897 µM
same,EC50 Pigmentation decrease,Danio rerio embryo [10]; exposure time: 2 dpf,1580 µM
same,EC50 Pigmentation decrease,Danio rerio embryo [10]; exposure time: 4 dpf,16300 µM
same,EC10 LMR dark,Danio rerio embryo [11],337 µM
same,EC20 Any effect,Danio rerio embryo [12]; exposure time: 2 dpf,2050 µM
same,EC20 Any effect,Danio rerio embryo [12]; exposure time: 4 dpf,1150 µM
same,EC20 STC bell shape,Danio rerio embryo [13],6320 µM
same,EC50 Body length Decrease,Danio rerio embryo [14]; exposure time: 2 dpf,3990 µM
same,EC50 Body length Decrease,Danio rerio embryo [14]; exposure time: 4 dpf,3940 µM
same,EC10 Pigmentation decrease,Danio rerio embryo [15]; exposure time: 2 dpf,1010 µM
same,EC10 Pigmentation decrease,Danio rerio embryo [15]; exposure time: 4 dpf,2380 µM
same,EC10 Otolith-eye distance Decrease,Danio rerio embryo [16],1780 µM
same,EC10 Body length Decrease,Danio rerio embryo [17]; exposure time: 2 dpf,3230 µM
same,EC10 Body length Decrease,Danio rerio embryo [17]; exposure time: 4 dpf,2790 µM
same,EC10 Pericard size Increase,Danio rerio embryo [18],2250 µM
same,EC10 LMR ligth decrease,Danio rerio embryo [19],467 µM
same,EC20 Pericard size Increase,Danio rerio embryo [20],2500 µM
same,EC20 Bladder size Decrease,Danio rerio embryo [21],1150 µM
same,EC10 Any effect,Danio rerio embryo [22]; exposure time: 2 dpf,1740 µM
same,EC10 Any effect,Danio rerio embryo [22]; exposure time: 4 dpf,915 µM
same,EC20 Curvature Increase,Danio rerio embryo [23]; exposure time: 2 dpf,2600 µM
same,EC20 Curvature Increase,Danio rerio embryo [23]; exposure time: 4 dpf,3370 µM
same,EC20 Body length Decrease,Danio rerio embryo [24]; exposure time: 2 dpf,3500 µM
same,EC20 Body length Decrease,Danio rerio embryo [24]; exposure time: 4 dpf,3170 µM
same,EC20 Otolith-eye distance Decrease,Danio rerio embryo [25],2080 µM
same,EC50 Eye size Decrease,Danio rerio embryo [26]; exposure time: 2 dpf,2960 µM
same,EC50 Eye size Decrease,Danio rerio embryo [26]; exposure time: 4 dpf,1850 µM
same,EC10 Eye-jaw distance Decrease,Danio rerio embryo [27],2200 µM
same,EC50 Bladder size Decrease,Danio rerio embryo [28],1420 µM
same,EC50 Eye-jaw distance Decrease,Danio rerio embryo [29],2830 µM
same,EC20 LMR ligth decrease,Danio rerio embryo [30],570 µM
same,EC10 Curvature Increase,Danio rerio embryo [31]; exposure time: 2 dpf,2100 µM
same,EC10 Curvature Increase,Danio rerio embryo [31]; exposure time: 4 dpf,3130 µM
same,EC20 LMR dark,Danio rerio embryo [32],500 µM
same,EC10 Bladder size Decrease,Danio rerio embryo [33],1020 µM
same,EC50 Lack of SB,Danio rerio embryo [34],1440 µM
same,EC20 Lack of SB,Danio rerio embryo [35],1200 µM
same,EC20 Pigmentation decrease,Danio rerio embryo [36]; exposure time: 2 dpf,1180 µM
same,EC20 Pigmentation decrease,Danio rerio embryo [36]; exposure time: 4 dpf,2730 µM
same,EC10 STC bell shape,Danio rerio embryo [37],5590 µM
C[C@@H]1C[C@H]2[C@@H]3CCC4=CC(=O)C=C[C@]4(C)[C@@]3(F)[C@@H](O)C[C@]2(C)[C@@]1(O)C(=O)CO [Dexamethasone],EC50 Any effect,Danio rerio embryo [5]; exposure time: 4 dpf,113 µM
same,EC50 Pericard size Increase,Danio rerio embryo [6],226 µM
same,EC10 Lack of SB,Danio rerio embryo [7],0.944 µM
same,EC50 Yolk sac size Decrease,Danio rerio embryo [38],259 µM
same,EC20 Any effect,Danio rerio embryo [12]; exposure time: 4 dpf,7.45 µM
same,spontaneous tail coiling frequency,Danio rerio embryo [39]; 2.5 µM,2.19 ± 1.4
same,spontaneous tail coiling frequency,Danio rerio embryo [39]; 25.5 µM,3.02 ± 0.14
same,spontaneous tail coiling frequency,Danio rerio embryo [39]; 63.7 µM,2.67 ± 0.078
same,spontaneous tail coiling frequency,Danio rerio embryo [39]; 127.4 µM,3.04 ± 0.58
same,spontaneous tail coiling frequency,Danio rerio embryo [39]; 254.8 µM,2.79 ± 1.5
same,EC10 Pericard size Increase,Danio rerio embryo [18],5.95 µM
same,EC20 Pericard size Increase,Danio rerio embryo [20],22.8 µM
same,EC20 Bladder size Decrease,Danio rerio embryo [21],2.7 µM
same,EC10 Any effect,Danio rerio embryo [22]; exposure time: 4 dpf,1.52 µM
same,EC50 Bladder size Decrease,Danio rerio embryo [28],14.3 µM
same,EC10 Yolk sac size Decrease,Danio rerio embryo [40],2.27 µM
same,EC10 Bladder size Decrease,Danio rerio embryo [33],1.02 µM
same,EC20 Yolk sac size Decrease,Danio rerio embryo [41],13.1 µM
same,EC50 Lack of SB,Danio rerio embryo [34],16.2 µM
same,EC20 Lack of SB,Danio rerio embryo [35],2.7 µM
